Assay results reported in ChEMBL document CHEMBL1201862, “PubChem BioAssay data set” (2004).
Activity calls are given as the source filed them.

Experiments:
[1] = biological target: Trypsin (Sus scrofa, UniProt P00761); assay: porcine trypsin inhibitors, dose response, selectivity assay for Rce1 protease inhibitor project, biochemical, quenched peptide fluorescence, cherry-pick (AID 488789)
[2] = biological target: T1, CAAX prenyl protease 2 (Homo sapiens, UniProt Q9Y256); assay: human Rce1 protease inhibitors, dose response, biochemical, yeast membranes, quenched-peptide fluorescence, cherry-pick (AID 588849)
T1 sequence (Q9Y256 whole entry): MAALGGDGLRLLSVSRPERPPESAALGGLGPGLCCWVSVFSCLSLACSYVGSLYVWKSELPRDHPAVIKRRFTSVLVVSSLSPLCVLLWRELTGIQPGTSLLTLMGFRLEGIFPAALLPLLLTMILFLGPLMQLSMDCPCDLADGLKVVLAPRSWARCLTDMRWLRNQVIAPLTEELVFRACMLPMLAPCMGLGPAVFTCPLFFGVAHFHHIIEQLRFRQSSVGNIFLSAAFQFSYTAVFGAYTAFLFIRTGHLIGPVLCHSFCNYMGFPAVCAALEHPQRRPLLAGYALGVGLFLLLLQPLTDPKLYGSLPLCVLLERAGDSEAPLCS

[3] = biological target: Genome polyprotein (Hepatitis C virus, UniProt Q2Q167); assay: HCV core protein dimerization inhibitors, dose response, biochemical, TR-FRET (AID 2159); set-up: species or system Hepacivirus hominis;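 further: blocks dimerization of HCV core protein measured by TR-FRET between tagged core106 pairs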
[4] = biological target: T2, Calpain-2 catalytic subunit (Sus scrofa, UniProt P43367); assay: pig calpain II inhibitor potency, dose response, biochemical, fluorogenic peptide substrate (AID 1420); type: functional
T2 sequence (P43367 whole entry): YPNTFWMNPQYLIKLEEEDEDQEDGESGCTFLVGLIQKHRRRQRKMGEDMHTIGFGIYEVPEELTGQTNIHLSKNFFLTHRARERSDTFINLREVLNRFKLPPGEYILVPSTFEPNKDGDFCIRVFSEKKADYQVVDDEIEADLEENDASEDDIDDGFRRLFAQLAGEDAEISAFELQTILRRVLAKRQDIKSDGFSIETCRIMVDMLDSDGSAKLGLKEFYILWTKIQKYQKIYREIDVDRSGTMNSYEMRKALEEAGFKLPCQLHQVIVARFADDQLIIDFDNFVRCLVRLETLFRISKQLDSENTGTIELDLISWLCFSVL

[5] = biological target: Induced myeloid leukemia cell differentiation protein Mcl-1 (Homo sapiens, UniProt Q07820); type: functional
[6] = biological target: C-C chemokine receptor type 6 (Homo sapiens, UniProt P51684); assay: CCR6 receptor antagonists, dose response, cell-based, luminescent beta-arrestin readout (AID 504728); type: functional
[7] = biological target: Beta-galactosidase (Escherichia coli, UniProt Q8VNN2); assay: beta-galactosidase enzyme inhibitors and activators, dose response, artefact control for CCR6 antagonist project, biochemical, E. coli enzyme, set 3 (AID 504712); type: functional
[8] = biological target: Eukaryotic translation initiation factor 4E (Mus musculus, UniProt P63073); assay: eIF4E–eIF4G protein interaction inhibitors, dose response, biochemical, TR-FRET (AID 855); type: functional;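 further: potency for disrupting eIF4E binding to eIF4GI seen as loss of FRET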
[9] = biological target: T3, Carboxy-terminal domain RNA polymerase II polypeptide A small phosphatase 1 (Homo sapiens, UniProt Q9GZU7); assay: inhibitors of CTDSP1, concentration-response testing, biochemical assay, absorbance-based, actives from ultra-high-throughput screening (AID 540297); type: functional
T3 sequence (Q9GZU7 whole entry): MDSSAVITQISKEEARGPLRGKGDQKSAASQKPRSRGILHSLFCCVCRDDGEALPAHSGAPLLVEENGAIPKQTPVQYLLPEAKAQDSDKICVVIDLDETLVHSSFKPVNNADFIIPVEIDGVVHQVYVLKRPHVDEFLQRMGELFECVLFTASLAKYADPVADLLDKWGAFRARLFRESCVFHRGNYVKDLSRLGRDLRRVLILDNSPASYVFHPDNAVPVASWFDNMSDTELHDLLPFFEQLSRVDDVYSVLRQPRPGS

[10] = biological target: T4, Low molecular weight phosphotyrosine protein phosphatase (Homo sapiens, UniProt P24666); type: functional; conditions: read-out: IC50_Mean
T4 sequence (P24666 whole entry): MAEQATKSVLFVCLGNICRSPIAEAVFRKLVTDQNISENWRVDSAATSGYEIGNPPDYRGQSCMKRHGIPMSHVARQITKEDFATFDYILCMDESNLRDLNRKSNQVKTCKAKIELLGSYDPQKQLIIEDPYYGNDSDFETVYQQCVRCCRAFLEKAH

[11] = biological target: T4, Low molecular weight phosphotyrosine protein phosphatase; type: functional; conditions: read-out: IC50_Mean; remark: listed apart in the source
[12] = biological target: T5, RNA-binding protein pos-1 (Caenorhabditis elegans, UniProt G5EF15); assay: inhibitors of POS-1/mex-3 RNA binding, dose response, biochemical, fluorescence polarization (AID 1964);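 further: purified POS-1 fused to maltose binding protein made in E. coli; potency of compounds blocking POS-1 binding to fluorescent RNA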
T5 sequence (G5EF15 whole entry): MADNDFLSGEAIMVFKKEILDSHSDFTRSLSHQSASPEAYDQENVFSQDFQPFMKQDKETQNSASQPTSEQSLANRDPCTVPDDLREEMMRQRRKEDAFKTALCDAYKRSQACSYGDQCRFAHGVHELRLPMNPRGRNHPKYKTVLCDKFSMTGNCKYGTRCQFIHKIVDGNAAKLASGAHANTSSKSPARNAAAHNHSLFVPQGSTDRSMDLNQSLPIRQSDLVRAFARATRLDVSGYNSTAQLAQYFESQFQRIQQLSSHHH

[13] = biological target: T6, Zinc finger protein mex-5 (Caenorhabditis elegans, UniProt Q9XUB2); assay: MEX-5/TCR-2 RNA interaction inhibitors, dose response, biochemical, C. elegans, fluorescence polarization (AID 1960)
T6 sequence (Q9XUB2 whole entry): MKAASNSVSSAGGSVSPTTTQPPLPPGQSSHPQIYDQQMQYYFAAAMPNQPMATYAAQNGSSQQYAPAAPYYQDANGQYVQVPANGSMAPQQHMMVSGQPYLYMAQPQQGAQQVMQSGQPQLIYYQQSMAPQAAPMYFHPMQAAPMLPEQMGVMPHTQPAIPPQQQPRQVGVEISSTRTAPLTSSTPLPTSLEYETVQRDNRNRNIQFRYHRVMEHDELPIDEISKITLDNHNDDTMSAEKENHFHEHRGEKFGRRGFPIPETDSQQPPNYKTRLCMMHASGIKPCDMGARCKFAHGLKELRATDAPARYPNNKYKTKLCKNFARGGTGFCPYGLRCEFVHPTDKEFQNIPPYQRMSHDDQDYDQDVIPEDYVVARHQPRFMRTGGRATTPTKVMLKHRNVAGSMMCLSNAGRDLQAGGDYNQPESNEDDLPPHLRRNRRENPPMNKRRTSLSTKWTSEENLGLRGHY

[14] = biological target: Neurotensin receptor type 1 (Homo sapiens, UniProt P30989); type: functional;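 further: Image-based confirmatory dose-response assay measuring agonist activity at NTR1; NTR1-expressing U2OS osteosarcoma cells imaged for beta-arrestin GFP spot formation; agonist potency where compounds increase beta-arrestin recruitment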
[15] = biological target: Protein Rev (Human immunodeficiency virus type 1 group M subtype B (isolate HXB2)(HIV-1), UniProt P04618); assay: inhibitors of Rev binding to RRE RNA, dose response, biochemical, fluorescence polarization, HIV-1 (AID 434976); set-up: species or system Human immunodeficiency virus 1
[16] = biological target: Female germline-specific tumor suppressor gld-1 (Caenorhabditis elegans, UniProt Q17339); assay: inhibitors of GLD-1 binding to TGE RNA, dose response, biochemical, fluorescence polarization, C. elegans (AID 2802);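 further: fluorescence polarization of labeled TGE RNA bound by purified gld-1 protein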
[17] = biological target: T7, Voltage-gated N-type calcium channel alpha-1B subunit/Amyloid beta A4 precursor protein-binding family A member 1 (Homo sapiens, UniProt Q00975+Q02410); type: protein assay
[18] = biological target: T7, Voltage-gated N-type calcium channel alpha-1B subunit/Amyloid beta A4 precursor protein-binding family A member 1; type: protein assay; remark: listed apart in the source
[19] = biological target: T8, Apoptotic protease-activating factor 1 (Homo sapiens, UniProt O14727); type: functional
T8 sequence (O14727 whole entry): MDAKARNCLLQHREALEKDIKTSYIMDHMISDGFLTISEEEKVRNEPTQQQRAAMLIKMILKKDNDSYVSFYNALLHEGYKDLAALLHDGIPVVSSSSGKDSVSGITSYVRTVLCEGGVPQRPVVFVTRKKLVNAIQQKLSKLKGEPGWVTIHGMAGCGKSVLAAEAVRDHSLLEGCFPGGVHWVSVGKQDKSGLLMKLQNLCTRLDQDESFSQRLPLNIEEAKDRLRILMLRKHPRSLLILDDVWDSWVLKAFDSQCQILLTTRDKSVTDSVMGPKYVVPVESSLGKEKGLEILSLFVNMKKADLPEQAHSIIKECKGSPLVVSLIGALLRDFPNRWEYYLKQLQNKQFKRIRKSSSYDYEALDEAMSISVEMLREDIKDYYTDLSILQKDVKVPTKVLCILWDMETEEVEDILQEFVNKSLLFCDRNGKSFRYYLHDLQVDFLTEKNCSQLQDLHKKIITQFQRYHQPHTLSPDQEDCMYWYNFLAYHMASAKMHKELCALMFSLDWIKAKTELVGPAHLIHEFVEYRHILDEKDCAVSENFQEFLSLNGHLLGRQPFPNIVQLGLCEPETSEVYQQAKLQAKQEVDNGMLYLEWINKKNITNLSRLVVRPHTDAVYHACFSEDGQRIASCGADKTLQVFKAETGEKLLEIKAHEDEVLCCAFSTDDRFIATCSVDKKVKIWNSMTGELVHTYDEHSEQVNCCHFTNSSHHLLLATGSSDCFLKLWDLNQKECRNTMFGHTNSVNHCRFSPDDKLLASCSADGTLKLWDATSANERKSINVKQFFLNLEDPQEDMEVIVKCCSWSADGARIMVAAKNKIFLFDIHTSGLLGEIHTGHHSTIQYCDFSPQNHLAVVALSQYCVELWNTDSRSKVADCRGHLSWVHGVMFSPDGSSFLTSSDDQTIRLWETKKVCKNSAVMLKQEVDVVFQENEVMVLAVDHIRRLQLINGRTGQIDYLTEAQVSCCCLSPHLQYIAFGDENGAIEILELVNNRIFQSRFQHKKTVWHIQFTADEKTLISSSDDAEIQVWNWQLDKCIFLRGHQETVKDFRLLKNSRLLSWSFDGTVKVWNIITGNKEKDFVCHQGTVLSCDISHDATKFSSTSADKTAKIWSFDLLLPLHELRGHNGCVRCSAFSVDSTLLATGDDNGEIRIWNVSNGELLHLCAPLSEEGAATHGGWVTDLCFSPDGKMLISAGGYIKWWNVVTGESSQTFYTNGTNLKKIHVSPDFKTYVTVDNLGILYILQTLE

T7 sequence (Q00975 whole entry): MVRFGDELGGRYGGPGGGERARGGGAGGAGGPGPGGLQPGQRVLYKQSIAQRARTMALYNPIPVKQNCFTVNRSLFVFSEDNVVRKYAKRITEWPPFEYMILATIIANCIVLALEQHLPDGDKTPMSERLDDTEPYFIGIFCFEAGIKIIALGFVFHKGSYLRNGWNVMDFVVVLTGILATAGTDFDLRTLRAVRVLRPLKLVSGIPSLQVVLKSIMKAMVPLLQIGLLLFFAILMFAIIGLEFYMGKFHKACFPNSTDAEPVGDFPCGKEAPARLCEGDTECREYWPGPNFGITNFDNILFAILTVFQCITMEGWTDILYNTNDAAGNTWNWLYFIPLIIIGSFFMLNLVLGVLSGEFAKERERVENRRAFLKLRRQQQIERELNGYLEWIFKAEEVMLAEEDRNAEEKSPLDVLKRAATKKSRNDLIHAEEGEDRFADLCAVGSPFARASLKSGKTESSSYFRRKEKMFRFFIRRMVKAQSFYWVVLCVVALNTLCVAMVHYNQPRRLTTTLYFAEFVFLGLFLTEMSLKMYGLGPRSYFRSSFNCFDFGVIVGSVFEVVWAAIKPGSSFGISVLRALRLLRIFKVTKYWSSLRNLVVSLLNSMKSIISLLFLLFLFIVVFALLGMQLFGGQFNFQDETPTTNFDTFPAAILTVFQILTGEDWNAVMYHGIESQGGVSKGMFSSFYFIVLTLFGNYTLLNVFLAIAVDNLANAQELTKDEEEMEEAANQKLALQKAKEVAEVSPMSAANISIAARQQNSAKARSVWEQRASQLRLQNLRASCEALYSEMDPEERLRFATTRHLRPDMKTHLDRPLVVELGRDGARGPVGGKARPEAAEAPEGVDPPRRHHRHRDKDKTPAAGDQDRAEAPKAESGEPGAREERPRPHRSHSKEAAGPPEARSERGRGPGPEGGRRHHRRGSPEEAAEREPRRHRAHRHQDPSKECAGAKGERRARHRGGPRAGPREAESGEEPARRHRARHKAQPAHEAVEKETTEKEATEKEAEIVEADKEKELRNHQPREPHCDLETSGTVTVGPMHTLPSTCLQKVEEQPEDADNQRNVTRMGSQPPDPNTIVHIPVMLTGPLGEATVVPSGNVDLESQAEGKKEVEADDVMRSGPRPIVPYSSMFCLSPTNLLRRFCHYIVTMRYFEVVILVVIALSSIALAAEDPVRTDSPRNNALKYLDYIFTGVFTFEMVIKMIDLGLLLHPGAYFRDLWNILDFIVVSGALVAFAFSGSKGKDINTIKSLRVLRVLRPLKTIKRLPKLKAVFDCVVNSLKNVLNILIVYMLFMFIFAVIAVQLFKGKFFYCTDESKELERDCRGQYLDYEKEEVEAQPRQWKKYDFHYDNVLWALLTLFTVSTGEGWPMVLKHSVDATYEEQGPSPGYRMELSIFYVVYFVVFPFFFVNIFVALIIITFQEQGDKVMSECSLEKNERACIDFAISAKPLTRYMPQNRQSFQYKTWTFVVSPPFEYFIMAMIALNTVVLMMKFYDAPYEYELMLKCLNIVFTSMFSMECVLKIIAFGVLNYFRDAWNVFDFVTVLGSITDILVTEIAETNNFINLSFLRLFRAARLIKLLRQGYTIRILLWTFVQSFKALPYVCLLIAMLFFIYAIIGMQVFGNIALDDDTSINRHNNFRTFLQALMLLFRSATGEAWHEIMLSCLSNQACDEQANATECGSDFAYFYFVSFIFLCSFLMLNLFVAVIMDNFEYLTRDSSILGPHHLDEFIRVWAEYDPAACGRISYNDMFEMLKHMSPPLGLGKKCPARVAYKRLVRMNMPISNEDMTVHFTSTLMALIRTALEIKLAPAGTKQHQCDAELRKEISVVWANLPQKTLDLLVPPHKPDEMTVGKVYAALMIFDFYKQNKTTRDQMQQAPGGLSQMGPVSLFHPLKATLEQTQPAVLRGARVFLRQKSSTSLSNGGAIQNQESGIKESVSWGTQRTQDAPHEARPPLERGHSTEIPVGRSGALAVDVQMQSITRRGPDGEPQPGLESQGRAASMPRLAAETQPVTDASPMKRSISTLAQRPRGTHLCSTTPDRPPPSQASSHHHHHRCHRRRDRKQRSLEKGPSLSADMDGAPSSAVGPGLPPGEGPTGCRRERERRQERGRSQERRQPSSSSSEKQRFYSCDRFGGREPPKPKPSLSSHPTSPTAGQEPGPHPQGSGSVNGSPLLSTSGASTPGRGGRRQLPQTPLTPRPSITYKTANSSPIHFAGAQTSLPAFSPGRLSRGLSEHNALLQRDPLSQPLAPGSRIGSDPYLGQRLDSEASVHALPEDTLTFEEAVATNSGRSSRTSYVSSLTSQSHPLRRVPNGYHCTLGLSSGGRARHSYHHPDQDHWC
T7 sequence (Q02410 whole entry): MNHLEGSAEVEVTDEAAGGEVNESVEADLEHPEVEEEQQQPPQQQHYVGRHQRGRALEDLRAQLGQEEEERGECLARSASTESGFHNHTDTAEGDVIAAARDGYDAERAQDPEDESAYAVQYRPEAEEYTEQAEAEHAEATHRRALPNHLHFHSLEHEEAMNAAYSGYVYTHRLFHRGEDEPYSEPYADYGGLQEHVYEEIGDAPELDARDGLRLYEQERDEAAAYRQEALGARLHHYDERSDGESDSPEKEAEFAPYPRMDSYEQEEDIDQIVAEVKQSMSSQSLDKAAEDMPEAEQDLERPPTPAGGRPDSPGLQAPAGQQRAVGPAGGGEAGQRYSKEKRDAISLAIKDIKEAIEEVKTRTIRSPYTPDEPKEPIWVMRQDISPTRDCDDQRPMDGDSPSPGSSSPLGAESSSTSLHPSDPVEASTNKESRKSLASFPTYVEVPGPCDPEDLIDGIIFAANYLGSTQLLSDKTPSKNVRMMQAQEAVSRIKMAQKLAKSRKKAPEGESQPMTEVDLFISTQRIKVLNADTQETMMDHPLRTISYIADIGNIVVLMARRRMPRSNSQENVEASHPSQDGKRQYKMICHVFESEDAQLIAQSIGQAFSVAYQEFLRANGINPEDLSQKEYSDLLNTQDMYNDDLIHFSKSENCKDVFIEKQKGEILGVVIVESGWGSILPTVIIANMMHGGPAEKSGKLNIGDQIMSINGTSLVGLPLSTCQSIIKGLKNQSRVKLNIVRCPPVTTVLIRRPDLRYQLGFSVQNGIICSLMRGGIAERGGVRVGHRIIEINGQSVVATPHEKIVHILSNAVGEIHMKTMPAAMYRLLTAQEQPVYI
Female germline-specific tumor suppressor gld-1, sequence (Q17339 whole entry): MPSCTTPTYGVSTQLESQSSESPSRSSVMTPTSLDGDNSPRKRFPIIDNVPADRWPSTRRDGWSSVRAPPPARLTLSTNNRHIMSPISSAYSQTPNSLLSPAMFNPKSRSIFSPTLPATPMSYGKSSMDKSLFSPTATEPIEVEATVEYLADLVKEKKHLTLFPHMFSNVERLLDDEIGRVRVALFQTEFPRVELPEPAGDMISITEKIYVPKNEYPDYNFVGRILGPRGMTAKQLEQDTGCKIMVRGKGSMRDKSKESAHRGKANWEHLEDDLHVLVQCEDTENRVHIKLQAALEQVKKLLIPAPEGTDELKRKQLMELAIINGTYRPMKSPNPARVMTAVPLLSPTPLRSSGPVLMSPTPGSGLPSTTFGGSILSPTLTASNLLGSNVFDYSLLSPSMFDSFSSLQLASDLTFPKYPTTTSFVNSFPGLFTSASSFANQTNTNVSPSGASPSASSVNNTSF
Eukaryotic translation initiation factor 4E, sequence (P63073 whole entry, the tested form may be a part): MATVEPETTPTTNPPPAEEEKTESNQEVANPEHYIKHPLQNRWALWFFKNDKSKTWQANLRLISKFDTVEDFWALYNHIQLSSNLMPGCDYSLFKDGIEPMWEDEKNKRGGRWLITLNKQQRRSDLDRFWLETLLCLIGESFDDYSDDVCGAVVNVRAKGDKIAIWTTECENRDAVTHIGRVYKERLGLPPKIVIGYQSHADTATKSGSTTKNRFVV
Neurotensin receptor type 1, sequence (P30989 whole entry): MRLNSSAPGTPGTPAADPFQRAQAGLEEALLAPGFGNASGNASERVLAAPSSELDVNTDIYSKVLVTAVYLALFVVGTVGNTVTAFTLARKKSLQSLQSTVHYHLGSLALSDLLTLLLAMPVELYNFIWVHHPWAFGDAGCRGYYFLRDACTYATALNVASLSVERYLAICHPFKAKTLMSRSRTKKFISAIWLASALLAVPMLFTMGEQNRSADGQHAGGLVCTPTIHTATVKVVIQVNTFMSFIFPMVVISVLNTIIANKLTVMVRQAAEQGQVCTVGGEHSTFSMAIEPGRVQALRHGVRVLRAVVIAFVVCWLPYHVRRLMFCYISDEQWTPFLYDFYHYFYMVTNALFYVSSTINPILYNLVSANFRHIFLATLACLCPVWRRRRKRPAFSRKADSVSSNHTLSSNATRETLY
Induced myeloid leukemia cell differentiation protein Mcl-1, sequence (Q07820 whole entry): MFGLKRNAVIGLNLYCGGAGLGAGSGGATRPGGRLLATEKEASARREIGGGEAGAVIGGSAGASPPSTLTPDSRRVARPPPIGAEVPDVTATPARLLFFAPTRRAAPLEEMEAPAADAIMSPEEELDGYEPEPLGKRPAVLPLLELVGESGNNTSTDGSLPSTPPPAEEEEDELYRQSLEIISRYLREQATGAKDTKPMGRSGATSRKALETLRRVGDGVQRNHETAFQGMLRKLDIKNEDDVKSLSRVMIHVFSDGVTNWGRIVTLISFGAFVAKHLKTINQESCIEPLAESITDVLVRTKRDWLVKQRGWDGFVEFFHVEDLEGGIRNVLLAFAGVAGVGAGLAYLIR
Genome polyprotein, sequence (Q2Q167 whole entry): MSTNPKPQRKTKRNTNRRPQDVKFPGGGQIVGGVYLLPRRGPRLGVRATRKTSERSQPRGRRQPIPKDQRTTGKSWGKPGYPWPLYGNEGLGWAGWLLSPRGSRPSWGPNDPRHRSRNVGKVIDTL
Trypsin, sequence (P00761 whole entry): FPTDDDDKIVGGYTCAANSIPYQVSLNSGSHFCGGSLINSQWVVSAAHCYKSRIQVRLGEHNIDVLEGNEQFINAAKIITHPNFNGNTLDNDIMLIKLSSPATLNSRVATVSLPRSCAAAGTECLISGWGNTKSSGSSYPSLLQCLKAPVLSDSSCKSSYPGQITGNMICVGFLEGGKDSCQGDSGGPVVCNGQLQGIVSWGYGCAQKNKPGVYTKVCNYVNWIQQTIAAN

Q: `C=CCn1c(=O)c2c(nc(-c3ccc(S(=O)(=O)O)cc3)n2C)n(C)c1=O` was tested. Which AC50 [1] did it give?
A: 1.41 µM (active)

Q: And the AC50 [2]?
A: 5.44 µM (active)

Q: What does the source list for `O=C(N=Nc1c(O)[nH]c2ccc([N+](=O)[O-])cc12)c1cc(-c2ccccc2Cl)nc2ccccc12`?
A: IC50 [3]: > 49.8 µM (not active); IC50 [4]: 4.56 µM (not active); IC50 [5]: 1.18 µM (active); IC50 [6]: > 66.6 µM (inactive); IC50 [7]: > 66.6 µM (inactive); IC50 [8]: > 64 µM (inactive); IC50 [9]: 0.711 µM (active); IC50 [10]: 2.89 µM (active); IC50 [11]: 1.98 µM (active)

Q: How did the EC50 [12] turn out when `O=C(CC1Nc2ccccc2NC1=O)Nc1cc(Cl)cc(Cl)c1` (centres undefined) was run?
A: 152 µM (active)

Q: What about the EC50 [13] of the same molecule?
A: > 300 µM (not active)

Q: What about the EC50 [14] of the same molecule?
A: 8.64 µM (active)

Q: Which IC50 [15] does the source give for `Nc1cc2nc3ccccc3nc2cc1N` here?
A: 9.53 µM (active)

Q: What about the IC50 [16] of the same molecule?
A: 4.97 µM (active)

Q: And the IC50 [17]?
A: 9.86 µM (active)

Q: What about the IC50 [18] of the same molecule?
A: > 50 µM (inactive)

Q: What about the IC50 [19] of the same molecule?
A: > 100 µM (inactive)
